Here are results for six compounds from patent publication US9974721B2, “Cosmetic composition for lightening skin and hair” (Symrise AG, priority 2013, dated 2018).

Data set [1] has as its system B16V mouse melanoma cells. Put plainly: Depigmentation effect on melanoma cell cultures (inhibition of pigmentation). The settings on record: for pIC50: Mus musculus, B16V cells, 0.3 mM tyrosine + 10 nM α-MSH, 96 h, absorption at 400 nm. The data set is classed as cell-based. How it is done: (§1) B16V mouse melanoma cells are disseminated in a 96-well micro-titre plate in a concentration of 7.5×10^3 cells/well. After cultivation for 24 h at 37° C. and 5% CO2 in RPMI medium, enriched with 10% foetal calf serum, various concentrations of the test substances and 0.3 mM tyrosine and 10 nM α-MSH (α-melanocyte stimulating hormone) are added and incubated for a further 96 h. The maximum concentration of the test substances used corresponds to 0.1 times the value of the IC20 value of the cytotoxicity assay. Only tyrosine and α-MSH are added to the controls. After incubation, sodium hydroxide solution (final concentrations: 1 M) is added to the culture medium and the absorption (A) is measured after 3 h at 400 nm.
(§2) The inhibition of pigmentation in the presence of the test compounds was calculated using the following equation: Inhibition of pigmentation (%)=100−[(Atest compound/Acontrol)×100] wherein Atest compound=absorption of the wells with test substance and with cells Acontrol=absorption of the wells without test substance, but with cells
From the inhibition of pigmentation (%) in a series of dilutions of test compounds, the IC50 for each test compound is calculated. This is the concentration of a test compound at which pigmentation is inhibited by 50%.

The subject of data set [2] is B16V mouse melanoma cells. Kind of data set: Synergistic in vitro melanin inhibition (procedure of Example 1, Kull synergy index). It is filed as cell-based. The settings on record: experiments 1 and 2, mixture 75% Larixol / 25% SymWhite 377. How it is done: as §1, §2
From the inhibition of pigmentation (%) in a series of dilutions of test compounds, the IC50 for each test compound is calculated. […]
The Synergy Index (SI)^1 is calculated according to Kull's equation as follows: ^1 The calculation of the synergy index (SI-value) was carried out on the basis of following literature: D. C. […]

For the next data set, the system named is Human skin. Kind of data set: Depigmentation effect on ex vivo skin (melanin granules, Fontana-Masson, image analysis). It is filed as cell-based. The settings on record: 0.1 wt.% in O/W emulsion, topical, 6 days. As to the method: Human skin, originating from plastic surgery, was cut into 4×4×3 mm pieces (length×width×height) and placed in culture at the air-liquid interface on a sterilized cotton pad soaked with 5 ml of customized DMEM (Dulbecco's Modified Eagle Medium). Assays were started 24 h after sample acclimatization at 37° C., 5% CO2. O/W emulsions (as described in more detail below) without (=control) and with the test compounds, respectively, were applied topically and incubated for 6 days. Histological sections were prepared and melanin granules stained by Fontana-Masson technique. The granules were quantified by image analysis. The results are compiled in Tables 3.1 and 3.2.
Phases A and B are heated to 70° C. separately. Pemulen TR1 as well as Ultrez-21 are dispersed in phase B when heated to 70° C. Phase B/C is added to phase A by mixing with an Ultra Turrax, followed by emulsifying. Phase D is slowly added to phase A/B/C using a paddle mixer and a pH 5.5-6 is adjusted. The formulation is cooled down while mixing with a paddle mixer. Phase E is added to the mixture of phase A-D.

Data set [3] in a line: Incorporation into commonly used cosmetic formulations / crystallisation. The data set is classed as physicochemical. To be noted: for incorporation into commonly used cosmetic formulations: own experiments. The source says: The analogues compound manool was already described as skin lightening active (JP 2006 137705 (Pola) and JP 06072855 (Pola)).
The target in data set [4] is plasminogen activator inhibitor-1 (PAI-1) (Homo sapiens, UniProt P05121). The settings on record: US 2010 0137194; cited from earlier work.
Data set [5] has as its target T1, transient receptor potential cation channel-6 (TRPC6) (Homo sapiens, UniProt Q9Y210).
T1 sequence (Q9Y210 1-931): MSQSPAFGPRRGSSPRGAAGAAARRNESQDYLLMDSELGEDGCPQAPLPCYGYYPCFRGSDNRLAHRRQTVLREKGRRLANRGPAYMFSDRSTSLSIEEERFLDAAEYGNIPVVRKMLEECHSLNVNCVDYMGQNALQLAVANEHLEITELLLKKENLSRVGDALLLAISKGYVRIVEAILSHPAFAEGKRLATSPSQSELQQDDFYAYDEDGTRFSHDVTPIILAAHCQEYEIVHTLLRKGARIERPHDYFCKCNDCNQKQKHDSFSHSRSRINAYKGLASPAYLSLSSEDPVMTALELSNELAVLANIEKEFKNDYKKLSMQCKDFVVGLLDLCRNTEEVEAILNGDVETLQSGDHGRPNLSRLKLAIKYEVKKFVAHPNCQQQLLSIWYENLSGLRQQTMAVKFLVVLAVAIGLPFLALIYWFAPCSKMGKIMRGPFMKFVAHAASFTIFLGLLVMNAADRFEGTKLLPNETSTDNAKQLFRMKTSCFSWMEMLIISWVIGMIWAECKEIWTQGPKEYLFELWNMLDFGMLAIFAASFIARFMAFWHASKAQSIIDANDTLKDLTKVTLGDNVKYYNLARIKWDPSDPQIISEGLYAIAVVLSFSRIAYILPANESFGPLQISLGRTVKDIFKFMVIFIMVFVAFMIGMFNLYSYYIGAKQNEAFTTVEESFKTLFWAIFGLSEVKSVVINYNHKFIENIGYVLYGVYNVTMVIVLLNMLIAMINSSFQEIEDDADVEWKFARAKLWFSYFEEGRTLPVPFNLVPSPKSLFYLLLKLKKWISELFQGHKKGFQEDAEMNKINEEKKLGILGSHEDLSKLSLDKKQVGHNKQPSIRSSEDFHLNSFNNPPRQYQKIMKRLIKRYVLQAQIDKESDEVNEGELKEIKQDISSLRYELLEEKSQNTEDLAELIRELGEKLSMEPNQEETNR
To be noted: WO 2013 021038 A1; cited from earlier work.

pIC50: −log10 of the molar value. “And” between values parts separate entries of the source, which are not always exact repeats. Identical values can stand only once.

Sequence of plasminogen activator inhibitor-1 (PAI-1) (P05121 24-402, species assumed): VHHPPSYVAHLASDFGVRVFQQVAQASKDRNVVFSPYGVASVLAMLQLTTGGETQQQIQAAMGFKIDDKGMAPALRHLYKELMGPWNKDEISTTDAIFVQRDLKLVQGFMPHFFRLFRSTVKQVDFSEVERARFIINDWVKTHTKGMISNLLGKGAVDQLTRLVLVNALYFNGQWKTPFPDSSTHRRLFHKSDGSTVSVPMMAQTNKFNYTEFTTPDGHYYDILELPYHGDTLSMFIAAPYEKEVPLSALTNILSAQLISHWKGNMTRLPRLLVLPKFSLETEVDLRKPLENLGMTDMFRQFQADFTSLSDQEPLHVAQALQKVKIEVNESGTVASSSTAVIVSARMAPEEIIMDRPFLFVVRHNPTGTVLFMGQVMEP

Turning to `C=C[C@@](C)(O)CC[C@H]1C(=C)C[C@H](O)[C@H]2C(C)(C)CCC[C@]12C` [Larixol, (1S,4S,4aR,8aS)-4-[(3S)-3-Hydroxy-3-methylpent-4-enyl]-4a,8,8-trimethyl-3-methylenedecahydronaphthalen-1-ol], in data set [1], the pIC50 (usually the IC50 on a negative log10 scale, so that one unit is a factor of ten) was 5.41. Moreover, the “inhibitory activity towards melanin formation in melanocytes” value in data set [1] (statement in words) is “strong inhibitory activity”. Also, in data set [2], the “Melanin inhibition IC50” value is 0.00011%. In the data set on Human skin, the “Melanin score vs. Control” value is reported as −41%. Further, the “incorporation into commonly used cosmetic formulations” value in data set [3] was “can easily be incorporated”. The “PAI-1 inhibition (screening)” value in data set [4] was “PAI-1 inhibitor”. The TRPC6 antagonism entry in data set [5] is listed as “TRPC6 antagonists”.
With `CC(c1ccccc1)c1ccc(O)cc1O` (stereo not shown) [SymWhite ® 377, 4-(1-phenylethyl)1,3-dihydroxybenzene], the “Melanin inhibition IC50” value in data set [2] is 0.000021% and 0.000034%.
Turning to `OC[C@H]1O[C@@H](Oc2ccc(O)cc2)[C@H](O)[C@@H](O)[C@@H]1O` [beta-Arbutin, reference compound], the pIC50 in data set [1] was 4.17.
With `C=CC(C)(O)CCC1C(=C)CC(OC(C)=O)C2C(C)(C)CCCC12C` (stereo not shown) [larixyl acetate], the TRPC6 antagonism entry in data set [5] is recorded as “TRPC6 antagonists”.
In the case of `C=CC(C)(CCC1C(=C)CC(OC(C)=O)C2C(C)(C)CCCC12C)OC(C)=O` (stereo not shown) [larixyl diacetate], the TRPC6 antagonism result in data set [5] is on record as “TRPC6 antagonists”.
With `C=C[C@](C)(O)CC[C@H]1C(=C)CC[C@H]2C(C)(C)CCC[C@]12C` [manool], the crystallisation in formulation result in data set [3] (formulation with manool, after a few days) is listed as “crystallisation of manool after a few days”. Also, the “incorporation into commonly used cosmetic formulations” value in data set [3] is reported as “difficult to incorporate”.
